The conditions of this data set: 101.33 kPa, Liquid.

Molecules are shown by their SMILES. Numbers after ± are expanded uncertainties.

Turning to `CCO` [ethanol], the mass density was 788.33 ± 0.49 kg/m3 (293.15 K); 784.97 ± 0.5 kg/m3 (298.15 K); 780.72 ± 0.5 kg/m3 (303.15 K); 772.61 ± 0.52 kg/m3 (313.15 K); 764.14 ± 0.53 kg/m3 (323.15 K).

As for `CC(C)O` [propan-2-ol], the mass density turned out to be 785.18 ± 0.5 kg/m3 (293.15 K); 781.31 ± 0.5 kg/m3 (298.15 K); 776.66 ± 0.51 kg/m3 (303.15 K); 767.83 ± 0.52 kg/m3 (313.15 K); 758.71 ± 0.54 kg/m3 (323.15 K).

With `CCCCO` [butan-1-ol], the mass density by setting is: (293.15 K) 809.52 ± 0.46 kg/m3; (298.15 K) 805.88 ± 0.47 kg/m3; (303.15 K) 801.99 ± 0.47 kg/m3; (313.15 K) 794.34 ± 0.48 kg/m3; (323.15 K) 786.67 ± 0.5 kg/m3.

Consider `CCCO` [propan-1-ol], for which the mass density (293.15 K) was found to be 803.56 ± 0.47 kg/m3; the mass density (298.15 K) was determined as 799.71 ± 0.48 kg/m3; the mass density (303.15 K) came to 795.58 ± 0.48 kg/m3; the mass density (313.15 K) is given as 787.34 ± 0.49 kg/m3; the mass density (323.15 K) is given as 778.97 ± 0.51 kg/m3.

For `CCC(C)O` (stereo not given) [butan-2-ol], the mass density runs as follows: (293.15 K) 805.56 ± 1.3 kg/m3; (298.15 K) 802.43 ± 1.4 kg/m3; (303.15 K) 797.76 ± 1.4 kg/m3; (313.15 K) 790.11 ± 1.4 kg/m3; (323.15 K) 784.92 ± 1.4 kg/m3.

Regarding `OCCN1CCOCC1` [4-morpholineethanol], the mass density is, setting by setting: (293.15 K) 1076.58 ± 0.97 kg/m3; (298.15 K) 1071.3 ± 0.94 kg/m3; (303.15 K) 1066.51 ± 0.92 kg/m3; (313.15 K) 1059.19 ± 0.88 kg/m3; (323.15 K) 1052.64 ± 0.84 kg/m3.

The values are drawn from the NIST ThermoML archive (doi:10.1016/j.jct.2007.11.010).
